Counter-ions that a name gives are not always drawn.

The first data set is described as follows: pH in aqueous solution. It is filed as physicochemical. The conditions noted are these: (native) pH of the aqueous solution of the salt.
For `CN[C@H]1CC[C@@H](c2ccc(Cl)c(Cl)c2)c2ccccc21` [sertraline (−)-camphor-10-sulfonic acid salt] [(−)-Camphor-10-sulfonic Acid Salt of Sertraline], the “pH in aqueous solution” value turned out to be 4.6.

As for `CN[C@H]1CC[C@@H](c2ccc(Cl)c(Cl)c2)c2ccccc21` [sertraline benzenesulfonic acid salt, Benzenesulfonic Acid Salt of Sertraline], the “pH in aqueous solution” value came out at 4.6.

Turning to `CN[C@H]1CC[C@@H](c2ccc(Cl)c(Cl)c2)c2ccccc21` [sertraline p-toluenesulfonic acid salt, P-Toluenesulfonic Acid Salt of Sertraline], the “pH in aqueous solution” value is recorded as 4.1.

Take `CN[C@H]1CC[C@@H](c2ccc(Cl)c(Cl)c2)c2ccccc21` [sertraline benzoic acid salt, Benzoic Acid Salt of Sertraline]: the “pH in aqueous solution” value is recorded as 5.2.

Take `CN[C@H]1CC[C@@H](c2ccc(Cl)c(Cl)c2)c2ccccc21` [sertraline fumaric acid salt, Fumaric Acid Salt of Sertraline]: the “pH in aqueous solution” value turned out to be 3.4.

Regarding `CN[C@H]1CC[C@@H](c2ccc(Cl)c(Cl)c2)c2ccccc21` [sertraline L-tartaric acid salt, L-Tartaric Acid Salt of Sertraline], the “pH in aqueous solution” value stood at 3.0.

The nature of another data set: aqueous solubility. It is filed as physicochemical.
Details: not given
One may read the aqueous solubility as how much of the substance goes into solution per volume. A low value points to a poorly soluble substance. Consider `CN[C@H]1CC[C@@H](c2ccc(Cl)c(Cl)c2)c2ccccc21` [sertraline (−)-camphor-10-sulfonic acid salt] [(−)-Camphor-10-sulfonic Acid Salt of Sertraline], for which the aqueous solubility was determined as 1500 µg/mL.

For `CN[C@H]1CC[C@@H](c2ccc(Cl)c(Cl)c2)c2ccccc21` [sertraline benzenesulfonic acid salt, Benzenesulfonic Acid Salt of Sertraline], the aqueous solubility amounted to 900 µg/mL. This aqueous solubility is about 1.7-fold lower than that of the molecule before.

`CN[C@H]1CC[C@@H](c2ccc(Cl)c(Cl)c2)c2ccccc21` [sertraline p-toluenesulfonic acid salt, P-Toluenesulfonic Acid Salt of Sertraline] gave an aqueous solubility of 400 µg/mL.

With `CN[C@H]1CC[C@@H](c2ccc(Cl)c(Cl)c2)c2ccccc21` [sertraline benzoic acid salt, Benzoic Acid Salt of Sertraline], the aqueous solubility worked out at 520 µg/mL.

With `CN[C@H]1CC[C@@H](c2ccc(Cl)c(Cl)c2)c2ccccc21` [sertraline fumaric acid salt, Fumaric Acid Salt of Sertraline], the aqueous solubility amounted to 2800 µg/mL.

In turn, `CN[C@H]1CC[C@@H](c2ccc(Cl)c(Cl)c2)c2ccccc21` [sertraline L-tartaric acid salt, L-Tartaric Acid Salt of Sertraline] gave an aqueous solubility of 4800 µg/mL.

A short description of another data set: hygroscopicity at relative humidity. It is filed as physicochemical. The conditions noted are these: at 90% relative humidity.
For the molecule `CN[C@H]1CC[C@@H](c2ccc(Cl)c(Cl)c2)c2ccccc21` [sertraline benzenesulfonic acid salt, Benzenesulfonic Acid Salt of Sertraline], the hygroscopicity result is given as “approximately 0.3%”.

With `CN[C@H]1CC[C@@H](c2ccc(Cl)c(Cl)c2)c2ccccc21` [sertraline p-toluenesulfonic acid salt, P-Toluenesulfonic Acid Salt of Sertraline], the hygroscopicity result was “approximately 0.1%”.

For `CN[C@H]1CC[C@@H](c2ccc(Cl)c(Cl)c2)c2ccccc21` [sertraline fumaric acid salt, Fumaric Acid Salt of Sertraline], the hygroscopicity entry is listed as “approximately 0.3%”.

The data set is the same for the next values; noted with them: at 100% relative humidity.
As to `CN[C@H]1CC[C@@H](c2ccc(Cl)c(Cl)c2)c2ccccc21` [sertraline (−)-camphor-10-sulfonic acid salt] [(−)-Camphor-10-sulfonic Acid Salt of Sertraline], the hygroscopicity result is given as “approximately 0.4%”.

For `CN[C@H]1CC[C@@H](c2ccc(Cl)c(Cl)c2)c2ccccc21` [sertraline benzoic acid salt, Benzoic Acid Salt of Sertraline], the hygroscopicity result is on record as “approximately 0.1%”.

As for `CN[C@H]1CC[C@@H](c2ccc(Cl)c(Cl)c2)c2ccccc21` [sertraline L-tartaric acid salt, L-Tartaric Acid Salt of Sertraline], the hygroscopicity entry was “less than 0.1%”.

The values are drawn from patent publication US7094930B2, “Pharmaceutically acceptable salts of sertraline and pharmaceutical compositions thereof” (Pfizer Inc, priority 2003, dated 2006).
